Source: patent US20100261682A1, “Method and Means for the Treatment of Cachexia” (Bioneris AB, priority 2007, published 2010)

Experiments:
[1] = tested on: MAC16 tumour-bearing mice; assay: Body weight, food and water intake in MAC16 tumour-bearing mice treated with lipid soluble alpha-trinositol (Example 5); format: in vivo, NMRI mice; conditions: for weight loss compared to the control group: 5 days
From the text: Materials. Lipid soluble alpha trinositol (1-D-tri-O-hexanoyl-myo-inositol 1,2,6-triphosphate) was formed by further esterification of 1-D-Myo-inositol 1,2,6-triphosphate.
(§1) Animals. Pure strain male NMRI mice (average body weight 25 g) were transplanted with fragments of the MAC16 tumour subcutaneously into the flank by means of a trochar, selected from donor animals with established weight loss (Bibby M C et al., Characterization of transplantable adenocarcinoma in the mouse colon producing cachexia in the recipient animals. J Natl Cancer Inst 78 (1987) 539-546). Transplanted animals were given a rat and mouse breeding diet (Special Diet Services, Witham, UK) and water at lib. Weight loss was evident 10 to 12 days after tumour implantation. Just prior to the development of weight loss […] were randomized into three groups of six animals each.
(§2) Administration of alpha-trinositol. A first experiment was started when the animals had lost about 5% of body weight. Aliquots of lipid soluble alpha-trinositol stock solution corresponding to doses of 6 mg/kg body weight and 8 mg/kg body weight for a 25 g animal were administered subcutaneously three times per day at 8.00, 12.00 and 16.00 hrs. The third group (control) was given an intravenous injection of 10 μl of PBS. Body weight (FIG. 26), tumour volume, and food (FIG. 27) and water (FIG. 28) intake were determined daily (for 5 days) after the last injection. Day 0 is the day of transplant and day 1 is the start of the experiment. The experiment was terminated on day 5 due to loss of controls.

MAC16 tumour = assay: Tumour volume in MAC16 tumour-bearing mice treated with lipid soluble alpha-trinositol (Example 5); format: in vivo, NMRI mice; conditions: 6 mg/kg and 8 mg/kg groups versus control
From the text: as §1, §2

CCCCCC(=O)O[C@@H]1[C@@H](OC(=O)CCCCC)[C@@H](OP(=O)(O)O)[C@@H](OP(=O)(O)O)[C@H](OP(=O)(O)O)[C@H]1OC(=O)CCCCC [lipid soluble alpha trinositol, 1-D-tri-O-hexanoyl-myo-inositol 1,2,6-triphosphate]
weight loss compared to the control group ([1]; 6 mg/kg s.c. three times per day): significantly lower weight loss | weight loss compared to the control group ([1]; 8 mg/kg s.c. three times per day): significantly lower weight loss | average weight loss in 5 days ([1]; highest concentration (8 mg/kg), control about 6 g): about 3 g | increase in tumour volume (MAC16 tumour): slightly higher in the control group
